Measured values from paper PMC9917201, “Enhanced Antibacterial Activity of Substituted Derivatives of NCR169C Peptide” (International Journal of Molecular Sciences, 2023).
≈ marks a conversion by molar mass, not a printed value. Residues, ends and D or L forms follow the SMILES beside them.

Tests used:
Candida species = settings: cited from earlier work
Excerpt: NCR169, a cationic peptide (net charge at pH7 is 1.91) consisting of 38 amino acids with four cysteine residues, is crucial for bacteroid differentiation, and its absence results in no nitrogen fixation but premature nodule senescence. Two NMR structures of NCR169 produced in Escherichia coli resulting from different disulfide bond patterns have been determined by utilizing the ^1H-^15N heteronuclear single-quantum coherence (HSQC) NMR technique.

[1] = system: Acinetobacter baumannii (ATCC 17978); assay type: cell-based; settings: ATCC 17978, 3 h, pH 7.4
Method in brief: (§1)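 Minimal bactericidal concentrations come from a 3 h killing step in potassium-phosphate buffer, pH 7.4, followed by overnight culture of spotted samples on LB agar at 37 °C; the concentration range was 25–[…].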

[2] = system: Enterococcus faecalis (ATCC 29212); assay type: cell-based; settings: Enterococcus faecalis ATCC 29212; ~10^7 log phase bacteria, 3 h in potassium-phosphate buffer (PPB) pH 7.4; peptide 25 to 0.125 μM 2-fold series; 5 μl on LB agar, overnight 37 °C
Method in brief: as §1

[3] = system: Klebsiella pneumoniae (NCTC 13440); assay type: cell-based; settings: NCTC 13440, 3 h, pH 7.4
Method in brief: as §1

[4] = system: Escherichia coli (ATCC 8739); assay type: cell-based; settings: ATCC 8739, 3 h, pH 7.4
Method in brief: as §1

[5] = system: Listeria monocytogenes (ATCC 19111); assay type: cell-based; settings: ATCC 19111, 3 h, pH 7.4
Method in brief: as §1

[6] = system: Staphylococcus aureus (HNCMO112011); assay type: cell-based; settings: Staphylococcus aureus HNCMO112011; ~10^7 log phase bacteria, 3 h in PPB pH 7.4; peptide 25 to 0.125 μM 2-fold series; plated on LB agar, overnight 37 °C
Method in brief: as §1

[7] = system: Pseudomonas aeruginosa (ATCC 27853); assay type: cell-based; settings: ATCC 27853, 3 h, pH 7.4
Method in brief: as §1

[8] = system: Salmonella enterica (ATCC 13076); assay type: cell-based; settings: Salmonella enterica ATCC 13076; ~10^7 log phase bacteria, 3 h in PPB pH 7.4; peptide 25 to 0.125 μM 2-fold series; plated on LB agar, overnight 37 °C
Method in brief: as §1

[9] = system: tested bacteria (ESKAPE pathogens, Listeria monocytogenes, Salmonella enterica); parameters: method as in PMID 32153547; settings: same bacterial species; cited from earlier work

| SMILES | antifungal activity against different Candida species (Candida species) | Minimal bactericidal concentration (MBC) A. b. [1] | Minimal bactericidal concentration (MBC) E. f. [2] | Minimal bactericidal concentration (MBC) K. p. [3] | Minimal bactericidal concentration (MBC) E. c. [4] | Minimal bactericidal concentration (MBC) L. m. [5] | Minimal bactericidal concentration (MBC) S. a. [6] | Minimal bactericidal concentration (MBC) P. a. [7] | Minimal bactericidal concentration (MBC) S. e. [8] | MBCs compared with the NCR169 peptide derivatives [9] |
| --- | --- | --- | --- | --- | --- | --- | --- | --- | --- | --- |
| CC[C@H](C)[C@H](NC(=O)[C@H](CCCCN)NC(=O)[C@H](Cc1ccccc1)NC(=O)[C@H](CC(C)C)NC(=O)[C@@H]1CCCN1C(=O)[C@H](CCCCN)NC(=O)[C@H](CCCCN)NC(=O)[C@H](CO)NC(=O)[C@@H](N)CCCCN)C(=O)N[C@@H](C)C(=O)N[C@@H](CCCCN)C(=O)N[C@@H](CS)C(=O)N[C@H](C(=O)N[C@@H](CCC(=O)O)C(=O)N[C@@H](CC(N)=O)C(=O)N[C@H](C(=O)N[C@@H](CS)C(=O)N[C@H](C(=O)N[C@@H](CC(C)C)C(=O)N[C@@H](C)C(=O)N[C@@H](Cc1ccc(O)cc1)C(=O)N[C@@H](CCCCN)C(N)=O)C(C)C)C(C)C)C(C)C [NCR169C17–38W10,20/A] (H-KSKKPLFKIAKCVENVCVLAYK-NH2; N-terminus assumed) | possess antifungal activity | 3.1 µM (≈ 7.78 µg/mL) | - (-: inactive up to 25 μM) | 12.5 µM (≈ 31.4 µg/mL) | 3.1 µM (≈ 7.78 µg/mL) | 25 µM (≈ 62.7 µg/mL) | - (-: inactive up to 25 μM) | 3.1 µM (≈ 7.78 µg/mL) | - (-: inactive up to 25 μM) |  |
| CC1(C)S[C@@H]2[C@H](NC(=O)C(C(=O)O)c3ccccc3)C(=O)N2[C@H]1C(=O)O (some centres unmarked) [carbenicillin] |  |  |  |  |  |  |  |  |  | 2–4 fold |
| C[C@H]1COc2c(N3CCN(C)CC3)c(F)cc3c(=O)c(C(=O)O)cn1c23 [levofloxacin] |  |  |  |  |  |  |  |  |  | either similar or 200-fold higher |
